Assay results reported in patent publication US9597407B2, “Targeted antimicrobial moieties” (C3 Jian, Inc., priority 2009, dated 2017).

Tests used:
microorganisms [1] = assay: Peptide activities: binding, antimicrobial, growth or phenotype altering (Table 8)
Source text: In certain embodiments, peptides described herein can have multiple activities. Thus for example, a peptide can have both binding/targeting activity and antimicrobial activity. Such peptides can be used, e.g., in a chimeric construct, for any or all of these properties. Thus, for example, a peptide designated “B” in Table 8 can be used as a targeting peptide. If it is also designated G or M it can also be used for antimicrobial activity.

microorganisms [2] = assay: Morphology, biofilm and growth disruption by peptides (Table 5); format: cell-based; set-up: key: A: Peptide aggregates; B: Less hyphal formation; Clumps; Diffuse clumps and small polyps; F: Diffuse growth; H: Thin; I: Growth inhibition; Microcolony formation; Rippled; Small polyps; Thick; W: Halo formation on top, microlonies on bottom
Source text: In certain embodiments peptides that induce alterations in phenotype or other biological activities can also be used as antimicrobial effector moieties.

Substance	Activities (microorganisms [1])	Organism, effect (microorganisms [2]; C. jejuni)	Organism, effect (microorganisms [2]; E. coli)	Organism, effect (microorganisms [2]; E. faecalis)	Organism, effect (microorganisms [2]; MRSA)	Organism, effect (microorganisms [2]; S. epidermidis)	Organism, effect (microorganisms [2]; S. pneumoniae)	other results
PF-057 (TMIVISIPRFEEYMKARHKKWM; Peptide with targeting and/or antimicrobial activity)	G B	C. jejuni (D)	E. coli (M)	E. faecalis (A)	MRSA (M)	S. epidermidis (D)	S. pneumoniae (R)	Organism, effect (microorganisms [2]; C. albicans): C. albicans (A); Organism, effect (microorganisms [2]; C. jeikeium): C. jeikeium (A); Organism, effect (microorganisms [2]; M. luteus): M. luteus (C)
PF-063 (IAAIIVLVLFQKGLLQIFNWILIQLQ; Peptide with targeting and/or antimicrobial activity)	G B	C. jejuni (D)			MRSA (M)	S. epidermidis (R)	S. pneumoniae (D)	Organism, effect (microorganisms [2]; B. subtilis): B. subtilis (C); Organism, effect (microorganisms [2]; C. jeikeium): C. jeikeium (D); Organism, effect (microorganisms [2]; M. luteus): M. luteus (R); Organism, effect (microorganisms [2]; P. aeruginosa): P. aeruginosa (A)
PF-068 (SHLINNFGLSVINPSTPICLNFSPVFNLLTVYGITCN; Peptide with targeting and/or antimicrobial activity)	G B	C. jejuni (D)	E. coli (A)	E. faecalis (A)	MRSA (M)	S. epidermidis (M)	S. pneumoniae (D)	Organism, effect (microorganisms [2]; B. subtilis): B. subtilis (A); Organism, effect (microorganisms [2]; C. jeikeium): C. jeikeium (R); Organism, effect (microorganisms [2]; M. luteus): M. luteus (D)
PF-124 (MADGQIAAIAKLHGVPVATRNIRHFQSFGVELINPWSG; Peptide with targeting and/or antimicrobial activity)	G B					S. epidermidis (C)		Organism, effect (microorganisms [2]; C. jeikeium): C. jeikeium (R)
PF-354 (FTFSKCRASNGRGFGTLWL; Peptide with targeting and/or antimicrobial activity)	G B				MRSA (H)			
PF-355 (WIAIGLLLYFSLKNQ; Peptide with targeting and/or antimicrobial activity)	G B	C. jejuni (D)	E. coli (C)	E. faecalis (D)	MRSA (A)	S. epidermidis (C)	S. pneumoniae (D)	Organism, effect (microorganisms [2]; P. aeruginosa): P. aeruginosa (A)
PF-356 (VSIKIGAIVIGMIGLMELLTE; Peptide with targeting and/or antimicrobial activity)	G B	C. jejuni (D)		E. faecalis (R)	MRSA (C)	S. epidermidis (S)	S. pneumoniae (R)	Organism, effect (microorganisms [2]; P. aeruginosa): P. aeruginosa (A)
PF-357 (MLTIIIGFIFWTMTLMLGYLIGEREGRKHE; Peptide with targeting and/or antimicrobial activity)	G B				MRSA (M)	S. epidermidis (M)	S. pneumoniae (M)	Organism, effect (microorganisms [2]; M. luteus): M. luteus (C)
PF-374 (HLFFVKGMFILCQKNQINDE; Peptide with targeting and/or antimicrobial activity)	G B		E. coli (C)	E. faecalis (C)	MRSA (M)	S. epidermidis (C)		
PF-375 (MDSAKAQTMRTDWLAVSCLVASAYLRSMLA; Peptide with targeting and/or antimicrobial activity)	G B		E. coli (C)	E. faecalis (C)	MRSA (C)	S. epidermidis (C)		
PF-376 (MTVFEALMLAIAFATLIVKISNKNDKK; Peptide with targeting and/or antimicrobial activity)	G B		E. coli (C)	E. faecalis (C)	MRSA (C)	S. epidermidis (C)		
PF-379 (VFVVLFIIYLASKLLTKLFPIKK; Peptide with targeting and/or antimicrobial activity)	G B		E. coli (C)	E. faecalis (C)	MRSA (C)	S. epidermidis (C)		
PF-380 (KKIIPLITLFVVTLVG; Peptide with targeting and/or antimicrobial activity)	G B	C. jejuni (D)	E. coli (C)	E. faecalis (C)	MRSA (D)	S. epidermidis (C)	S. pneumoniae (D)	Organism, effect (microorganisms [2]; P. aeruginosa): P. aeruginosa (A)
PF-386 (FTLTLITTIVAILNYKDKKK; Peptide with targeting and/or antimicrobial activity)	G B		E. coli (C)	E. faecalis (C)	MRSA (C)	S. epidermidis (C)		
PF-439 (RVLVLKKFHGIMDGNRNVAVFFVGQ; Peptide with targeting and/or antimicrobial activity)	G B							Organism, effect (morphology, biofilm and growth disruption) (microorganisms [2]; E. coli): E. coli (R); Organism, effect (morphology, biofilm and growth disruption) (microorganisms [2]; E. faecalis): E. faecalis (C); Organism, effect (morphology, biofilm and growth disruption) (microorganisms [2]; MRSA): MRSA (M); Organism, effect (morphology, biofilm and growth disruption) (microorganisms [2]; S. epidermidis): S. epidermidis (C); Organism, effect (morphology, biofilm and growth disruption) (microorganisms [2]; S. pneumoniae): S. pneumoniae (R)
PF-440 (MFIISPDLFNIAVILYILFFIHDILLLILS; Peptide with targeting and/or antimicrobial activity)	G B							Organism, effect (morphology, biofilm and growth disruption) (microorganisms [2]; E. coli): E. coli (R); Organism, effect (morphology, biofilm and growth disruption) (microorganisms [2]; E. faecalis): E. faecalis (C); Organism, effect (morphology, biofilm and growth disruption) (microorganisms [2]; MRSA): MRSA (C); Organism, effect (morphology, biofilm and growth disruption) (microorganisms [2]; S. epidermidis): S. epidermidis (C); Organism, effect (morphology, biofilm and growth disruption) (microorganisms [2]; S. pneumoniae): S. pneumoniae (R)
PF-443 (KLLYFFNYFENLQQVHLLVQL; Peptide with targeting and/or antimicrobial activity)	G B							Organism, effect (morphology, biofilm and growth disruption) (microorganisms [2]; E. coli): E. coli (R); Organism, effect (morphology, biofilm and growth disruption) (microorganisms [2]; MRSA): MRSA (C); Organism, effect (morphology, biofilm and growth disruption) (microorganisms [2]; S. pneumoniae): S. pneumoniae (C)
PF-450 (HRNLIILQRTIFI; Peptide with targeting and/or antimicrobial activity)	G B							Organism, effect (morphology, biofilm and growth disruption) (microorganisms [2]; E. faecalis): E. faecalis (C); Organism, effect (morphology, biofilm and growth disruption) (microorganisms [2]; MRSA): MRSA (C); Organism, effect (morphology, biofilm and growth disruption) (microorganisms [2]; S. pneumoniae): S. pneumoniae (C)
PF-451 (MVNYIIGSYMLYREQNNNEALRKFDITLAM; Peptide with targeting and/or antimicrobial activity)	G B							Organism, effect (morphology, biofilm and growth disruption) (microorganisms [2]; E. coli): E. coli (R); Organism, effect (morphology, biofilm and growth disruption) (microorganisms [2]; E. faecalis): E. faecalis (C); Organism, effect (morphology, biofilm and growth disruption) (microorganisms [2]; MRSA): MRSA (C); Organism, effect (morphology, biofilm and growth disruption) (microorganisms [2]; S. epidermidis): S. epidermidis (C); Organism, effect (morphology, biofilm and growth disruption) (microorganisms [2]; S. pneumoniae): S. pneumoniae (C)
